For assay [1], the system named is GFP reporter protein. In words: GFP reporter silencing in CHO-GFP cells (flow cytometry). In kind it is cell-based, Chinese hamster. The conditions noted are these: N/P=4, 48 h post-transfection, 100 nM siRNA. The procedure:
The RNAi induced silencing capabilities of each carrier was investigated in both a CHO-GFP non-cancerous cell line and an HT29-Luc (luciferase) human colon cancer cell line. Approximately 50,000 CHO-GFP cells were seeded into 6 well plates. When 25% confluency was achieved, the growth media were replaced with fresh serum free transfection media containing siRNA nanoparticles, at a dose of 100 nM siRNA. Negative controls included cells that were either treated with naked anti-GFP siRNA or with plain serum-free media. N/P ratios of 4, 6, 8, 10, 12, and 14 were tested for each carrier to determine the optimal nanoparticle formulation. […] After 4 h, the media were removed and replaced with fresh complete growth media, and cells were allowed to grow for another 24, 48, or 72 h post-transfection. At each of these time points, the CHO-GFP cells were rinsed twice with PBS, trypsinized, and fixed with 2% paraformaldehyde. […] Cell-Quest software was used to analyze the results and obtain mean fluorescence intensity (MFI) values.
The RNAi capabilities of each carrier were investigated by analyzing the silencing of a luciferase (Luc) reporter in HT29 cancer cells after anti-Luc siRNA therapy. […] Luciferase expression was determined using a Spectra Max luminometer upon the addition of a light-inducing substrate to the collected protein. […]

Assay [2] relates to luciferase reporter. Briefly: Luciferase reporter silencing in HT29-Luc cells. The conditions noted are these: for Luciferase expression: 100 nM siRNA. Type of assay: cell-based, human. Here is the method: Gene silencing efficiency was investigated in the HT29-Luc cell line by analyzing the expression of a luciferase reporter after anti-Luc siRNA therapy. To perform this study, cancer cells were seeded in 12 well plates at a density of 20,000 cells per well. Transfections were conducted in fresh serum-free media with 100 nM of siRNA when the cells were 25% confluent. The cells continued to grow in normal growth media for an additional 48 and 72 h, at which point they were rinsed twice with PBS and lysed for protein collection. The lysis buffer was a component of a Promega Luciferase Assay kit designed for measuring luciferase expression in the cell lysate. Equally important, the lysis buffer was compatible with the BCA protein assay so that we were able to normalize the luciferase expression in our samples with total protein content. For this silencing study, all synthesized carriers were evaluated at N/P ratios of 8, 10, 12, 14, 16, 18, and 20 to determine the best transfection formulation. Relative luciferase expression was determined for each trial using a SpectraMax luminometer upon the addition of a light-inducing luciferin substrate to the collected protein.
The RNAi capabilities of each carrier were investigated by analyzing the silencing of a luciferase (Luc) reporter in HT29 cancer cells after anti-Luc siRNA therapy. To perform this study, we seeded HT29-Luc cells in 12 well plates at a density of 20,000 cells per well. When 25% confluency, the cells were incubated with fresh serum-free transfection media containing nanoparticles at a dose of 100 nM siRNA. After 4 hours, the media was replaced with fresh complete growth media, so that the cells could continue to grow for an additional 48-72 hours, at which point they were lysed for protein collection. The lysis buffer was compatible with the BCA protein assay so that we could normalize luciferase expression in our samples. Negative controls included cells that were treated with 1) particles encapsulating non-specific siRNA, 2) naked anti-Luc siRNA, or 3) plain serum-free media. Luciferase expression was determined using a Spectra Max luminometer upon the addition of a light-inducing substrate to the collected protein. A similar knockdown experiment was also conducted in non-cancerous CHO cells expressing a GFP reporter. Flow cytometry was utilized to assess the silencing efficiency of the ECO and ECL delivery systems in this cell line. Cytotoxicity of the carriers 48 hours post-transfection was also investigated in both cell lines using an MTT colorimetric assay. […] These RNAi silencing levels surpassed those obtained with a Lipofectamine RNAiMax commercial transfection agent.
Background: In a reporter assay the amount or activity of a reporter protein is the signal.

Assay [3] deals with HT29-Luc cells. Briefly: Live-cell confocal imaging of intracellular siRNA release. Type of assay: cell-based, human. The procedure: Live-cell confocal imaging was utilized to image the intracellular release and dispersion of siRNA following transfection with the lipid carrier that performed best during the reporter knockdown studies. Approximately 50,000 HT29-Luc cells were seeded onto glass-bottom dishes (MatTek—Ashland, Mass.). Once 40% confluency was established, the cells were stained with 75 nM LysoTracker Red DND-99 (Invitrogen) for 30 min in normal growth medium. Afterwards, the cells were transfected with 100 nM Alexa Fluor 488-labeled anti-Luc siRNA in fresh serum-free media using the designed cationic lipid agent that performed the best in the above reporter knockdown experiments. Imaging commenced 5 min post-transfection using an Olympus FV1000 confocal microscope, and continued periodically over the first 2 h. Throughout the course of the study, all cells were kept alive on the microscope in a humidified weather station under normal gas conditions (5% CO2). Another image was acquired after 24 h following re-administration of the LysoTracker stain.
Confocal microscopy was utilized to perform a time course study that analyzed the uptake and intracellular release kinetics of siRNA using the ECO delivery platform. Intracellular release and dispersion of siRNA is essential in RNA interference since the RNAi machinery is found in the cytosol. The images in FIG. 27 reveal that upon cellular uptake, the ECO nanoparticles are able to facilitate the escape of its siRNA payload from the endocytic pathway within the first 2 hours after transfection, avoiding lysosomal degradation. Such results are in congruence with the hemolytic activity data showing the membrane disruptive properties of the delivery system in pH environments characteristic of both endosomes and lysosomes.

SMILES strings stand for the structures.

One compound from patent publication US11129845B2, “Compositions and methods for the delivery of nucleic acids” (CASE WESTERN RESERVE UNIVERSITY, priority 2014, dated 2021) can be followed below.

As for `CCCCCCCC/C=C\CCCCCCCC(=O)N[C@@H](CS)C(=O)NCCNC(=O)CCN(CCN)CCC(=O)NCCNC(=O)[C@H](CS)NC(=O)CCCCCCC/C=C\CCCCCCCC` [ECO, (1-aminoethyl)iminobis[N-(oleicylcysteinyl-1-amino-ethyl)propionamide]], the “relative GFP reporter expression” value in assay [1] turned out to be 61.0±5.05%. The “luciferase knockdown (transfection efficiency)” value in assay [2] (HT29, N/P 18, 72 h post-transfection) came out at 77.5±3.3%. The silencing efficiency in assay [2] (HT29-Luc, N/P ratio of 18, over 72 hours) was 80%. Moreover, the Luciferase expression in assay [2] (HT29-Luc, N/P=12, 72 h) is on record as 33.5±3.82%; in assay [2] (HT29-Luc, N/P=18 (Lipofectamine per manufacturer), 72 h), 22.7±3.31%. The “time to escape of siRNA payload from the endocytic pathway” value in assay [3] (HT29-Luc, after transfection) is no more than 90 min; in assay [3] (after transfection (Example 3)), no more than 120 min. In addition, the “time to evade lysosomal degradation” value in assay [3] (HT29-Luc, post-transfection) was no more than 1 h.
